Source: US20070037788A1, “Tricyclic steroid hormone nuclear receptor modulators” (Eli Lilly and Company, priority 2003, published 2007)

Target: T1, human MR (Homo sapiens, UniProt P08235)
T1 construct: The full length human MR gene is cloned from a human kidney or human brain cDNA library; made in house; host or cells: SF9 insect cells (baculovirus)
T1 sequence (P08235 1-984): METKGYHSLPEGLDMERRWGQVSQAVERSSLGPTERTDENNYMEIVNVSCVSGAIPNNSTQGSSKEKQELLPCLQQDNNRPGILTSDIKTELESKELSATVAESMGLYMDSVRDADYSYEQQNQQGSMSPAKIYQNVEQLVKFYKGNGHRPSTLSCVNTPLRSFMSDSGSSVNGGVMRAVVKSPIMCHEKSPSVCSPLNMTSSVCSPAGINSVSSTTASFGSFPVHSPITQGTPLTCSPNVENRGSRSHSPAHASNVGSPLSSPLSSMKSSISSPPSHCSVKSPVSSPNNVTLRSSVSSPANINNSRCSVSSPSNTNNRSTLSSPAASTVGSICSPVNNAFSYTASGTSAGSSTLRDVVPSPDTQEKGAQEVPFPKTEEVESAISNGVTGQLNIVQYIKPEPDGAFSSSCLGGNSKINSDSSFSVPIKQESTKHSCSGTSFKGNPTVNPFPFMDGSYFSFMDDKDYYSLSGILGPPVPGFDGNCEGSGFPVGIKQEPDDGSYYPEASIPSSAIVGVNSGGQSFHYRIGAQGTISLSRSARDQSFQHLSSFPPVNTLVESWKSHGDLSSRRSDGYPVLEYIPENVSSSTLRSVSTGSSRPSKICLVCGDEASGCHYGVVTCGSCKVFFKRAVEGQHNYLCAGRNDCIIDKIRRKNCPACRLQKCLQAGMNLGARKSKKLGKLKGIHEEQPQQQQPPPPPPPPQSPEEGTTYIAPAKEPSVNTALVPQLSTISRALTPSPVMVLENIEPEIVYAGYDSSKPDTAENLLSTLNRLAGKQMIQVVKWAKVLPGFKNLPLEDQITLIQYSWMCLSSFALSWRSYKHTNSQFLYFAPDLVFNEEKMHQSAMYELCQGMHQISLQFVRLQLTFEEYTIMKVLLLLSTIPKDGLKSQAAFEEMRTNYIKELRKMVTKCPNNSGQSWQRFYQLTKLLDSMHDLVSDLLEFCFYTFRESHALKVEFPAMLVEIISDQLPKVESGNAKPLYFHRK
Test: Mineralocorticoid Receptor Binding Assay (Method 1)
Details: [3H]-aldosterone
Protocol: The full length human MR gene is cloned from a human kidney or human brain cDNA library. Briefly, using synthetic oligonucleotide primers (Eli Lilly and Company, Indianapolis) directed to nucleotides 20-54 and 3700-3666 of the human MR, polymerase chain reaction (PCR) is performed under standard conditions using a human cDNA library. The PCR reaction is performed in a final volume of 50 μl containing about 1 μl of a 50× stock solution of polymerase; about 1 μl of a 50× stock solution of DNTP; about 5 μl of an appropriate PCR buffer; about 1 μl of each primer; about 5 μl of a H. kidney or H. brain cDNA library; and about 36 μl of water. The reaction is allowed to denature for about 30 seconds at 95 degrees Celsius, anneal for about 30 seconds at 55 degrees Celsius, and extend for about 5 minutes at 72 degrees Celsius, the sequence being repeated for a total of about 35 cycles. The desired PCR product (3.68 Kb) is confirmed by gel electrophoresis and subsequently cut from the gel and stored at about −20 degrees Celsius until extraction. To extract the cDNA product from the agarose gel, the QIAEX II Gel Extraction protocol (QIAGEN, Inc.) is employed according to the manufacturer's instructions. Following extraction, the MR cDNA is cloned into an appropriate cloning vector (Zero Blunt TOPO PCR Cloning Kit (Invitrogen, Inc.) and a pAcHLT-baculovirus transfer vector (B.D./Pharminogen), then expressed in SF9 insect cells, essentially according to manufacturer's instructions. Sf9 cells are grown at a scale where gram quantity cell pellets are obtained for subsequent use in the MR binding assay. Harvested cell pellets are lysed by repeated freeze-thaw cycles (about 4) in a suitable lysis buffer then centrifuged at about 1×10^3 G (with the supernatant being saved for future assays).
MR binding assays are performed in a final total volume of about 250 μl containing about 20-25 μg of protein and 0.5 nM of [^3H]-aldosterone plus varying concentrations of test compound or vehicle. The assay binding buffer consists of 30 mM sodium molybdate, 30 mM of TRIS-HCl, 5 mM sodium phosphate, 5 mM sodium pyrophosphate, and about 10% glycerol, pH=7.5.
Briefly, assays are prepared at RT in 96-well Falcon 3072 plates, each well containing 210 μl of binding buffer, 10 μl of [^3H]-aldosterone, 10 μl of test compound/vehicle, and 20 μl of the resuspended receptor protein extract. Incubations are carried out at 4 degrees Celsius with shaking for about 16 hours. 200 μl aliquots of each incubation are filtered onto Millipore HA 0.45 micron 96-well filter plates, pre-moistened with cold 30 mM TRIS-HCl. The filter plates are suctioned dry with vacuum and immediately washed 3× with cold 30 mM TRIS-HCl. The plates are then punched out and the amount of receptor-ligand complex is determined by liquid scintillation counting using 4 ml of Ready Protein Plus™ liquid scintillation cocktail.

| Ki [µM] | SMILES |
| --- | --- |
| < 0.5 | C[C@@H]1CN(CCn2c(=O)[nH]c3cc(/C=C4/c5ccc(F)cc5OCc5c(F)cccc54)ccc32)C[C@H](C)O1 [Example 41] |
| < 0.5 | O=c1[nH]c2cc(/C=C3\c4ccccc4COc4cc(F)ccc43)ccc2n1C1CCNC1 (stereo not drawn) [Example 15] |
| < 0.5 | C[C@@H](CN1CCOCC1)n1c(=O)[nH]c2cc(/C=C3\c4ccccc4COc4cc(F)ccc43)ccc21 [Example 11] |
